Reference: paper PMC10035947, “Development of novel anilinoquinazoline-based carboxylic acids as non-classical carbonic anhydrase IX and XII inhibitors” (Journal of Enzyme Inhibition and Medicinal Chemistry, 2023)
Where two headings read alike, the source gives them in different places.

Columns and labels:
Experiment in all cases: NCI SRB assay
SF-539 = format: cell-based, human
SNB-19 = format: cell-based, human; conditions: for CC50: read-out: LC50 (the source's name)
HS 578 T = format: cell-based, human; conditions: for CC50: Hs-578T, read-out: LC50 (the source's name)
SF-268 = format: cell-based, human; conditions: for CC50: read-out: LC50 (the source's name)
COLO 205 = format: cell-based, human
OVCAR-8 = format: cell-based, human; conditions: for CC50: read-out: LC50 (the source's name)
786-0 = format: cell-based, human; conditions: for CC50: read-out: LC50 (the source's name)
UACC-257 = format: cell-based, human; conditions: for CC50: read-out: LC50 (the source's name)
MOLT-4 = format: cell-based, human; conditions: for CC50: read-out: LC50 (the source's name)
NCI-H460 = format: cell-based, human
HCT-116 = format: cell-based, human; conditions: for CC50: read-out: LC50 (the source's name)
SK-MEL-28 = format: cell-based, human; conditions: for CC50: read-out: LC50 (the source's name)
BT-549 = format: cell-based, human
SN12C = format: cell-based, human; conditions: for CC50: read-out: LC50 (the source's name)
A498 = format: cell-based, human; conditions: for CC50: read-out: LC50 (the source's name)
MDA-MB-435 = format: cell-based; conditions: for CC50: read-out: LC50 (the source's name)
HOP-92 = format: cell-based, human
[1] = Homo sapiens, SNB-19, SNB-19, 5-dose
[2] = Homo sapiens, SN12C, SN 12 C, 5-dose

Cc1ccc(-c2nc(Nc3ccccc3C(=O)O)c3ccccc3n2)cc1 [6b, 2-((2-(p-Tolyl)quinazolin-4-yl)amino)benzoic acid]
GI50 (SF-539; Homo sapiens, SF-539, 5-dose): 11.9 µM
CC50 (SF-539; Homo sapiens, SF-539, 5-dose, read-out: LC50 (the source's name)): 67.2 µM
GI% (SF-539; SF-539, 10 μM): 79%
Growth Percent (SF-539; SF-539, 1.00E-5 Molar): 21.26%
TGI (SF-539; SF-539, 5-dose): 28.3 µM
TGI (SF-539; SF-539, 5-dose, listed as D - 835857): 2.83E-5 Molar
GI50 (SNB-19; [1]): 8.09 µM
CC50 (SNB-19; [1]): > 100 µM
GI% (SNB-19; SNB-19, 10 μM): 91%
Growth Percent (SNB-19; SNB-19, 1.00E-5 Molar): 8.82%
GI50 (SNB-19; SNB-19, 5-dose): 8.1 µM
TGI (SNB-19; SNB-19, 5-dose): 81.7 µM
TGI (SNB-19; SNB-19, 5-dose, listed as D - 835857): 8.17E-5 Molar
CC50 (SNB-19; SNB-19, 5-dose): < 100 µM
GI% (HS 578 T; HS 578 T, 10 μM): 109%
Growth Percent (HS 578 T; HS 578T, 1.00E-5 Molar): -9.53%
TGI (HS 578 T; HS 578 T, 5-dose): 67.0 µM
TGI (HS 578 T; HS 578T, 5-dose): 6.70E-5 Molar
CC50 (HS 578 T; Homo sapiens, HS 578 T, 5-dose): < 100 µM
CC50 (HS 578 T; Homo sapiens, HS 578T, 5-dose): > 100 µM
GI50 (HS 578 T; Homo sapiens, HS 578 T, 5-dose): 10.2 µM
CC50 (SF-268; Homo sapiens, SF-268, SF-268, 5-dose): > 100 µM
GI50 (SF-268; Homo sapiens, SF-268, 5-dose): 14.3 µM
GI% (SF-268; SF-268, 10 μM): 89%
Growth Percent (SF-268; SF-268, 1.00E-5 Molar): 11.24%
TGI (SF-268; SF-268, 5-dose): <100 µM
TGI (SF-268; SF-268, 5-dose, listed as D - 835857): > 1.00E-4 Molar
CC50 (SF-268; SF-268, 5-dose): < 100 µM
GI% (COLO 205; COLO 205, 10 μM): – (Only GI% higher than 20% are shown)
Growth Percent (COLO 205; COLO 205, 1.00E-5 Molar): 80.94%
TGI (COLO 205; COLO 205, 5-dose): 41.0 µM
TGI (COLO 205; COLO 205, 5-dose, listed as D - 835857): 4.10E-5 Molar
GI50 (COLO 205; Homo sapiens, COLO 205, 5-dose): 17.8 µM
LC50 (concentration killing 50% of cells) (COLO 205; Homo sapiens, COLO 205, 5-dose): 94.1 µM
CC50 (OVCAR-8; Homo sapiens, OVCAR-8, OVCAR-8, 5-dose): > 100 µM
GI50 (OVCAR-8; Homo sapiens, OVCAR-8, 5-dose): 18.2 µM
GI% (OVCAR-8; OVCAR-8, 10 μM): 69%
Growth Percent (OVCAR-8; OVCAR-8, 1.00E-5 Molar): 30.51%
TGI (OVCAR-8; OVCAR-8, 5-dose): <100 µM
TGI (OVCAR-8; OVCAR-8, 5-dose, listed as D - 835857): > 1.00E-4 Molar
CC50 (OVCAR-8; OVCAR-8, 5-dose): < 100 µM
GI% (786-0; 786-0, 10 μM): 81%
Growth Percent (786-0; 786-0, 1.00E-5 Molar): 18.67%
TGI (786-0; 786-0, 5-dose): <100 µM
TGI (786-0; 786-0, 5-dose, listed as D - 835857): > 1.00E-4 Molar
CC50 (786-0; 786-0, 5-dose): < 100 µM
CC50 (786-0; Homo sapiens, 786-0, 786-0, 5-dose): > 100 µM
GI50 (786-0; Homo sapiens, 786-0, 5-dose): 17.1 µM
CC50 (UACC-257; Homo sapiens, UACC-257, UACC-257, 5-dose): > 100 µM
GI50 (UACC-257; Homo sapiens, UACC-257, 5-dose): 15.3 µM
GI% (UACC-257; UACC-257, 10 μM): 71%
Growth Percent (UACC-257; UACC-257, 1.00E-5 Molar): 28.64%
TGI (UACC-257; UACC-257, 5-dose): 90.3 µM
TGI (UACC-257; UACC-257, 5-dose, listed as D - 835857): 9.03E-5 Molar
CC50 (UACC-257; UACC-257, 5-dose): < 100 µM
CC50 (MOLT-4; Homo sapiens, MOLT-4, MOLT-4, 5-dose): > 100 µM
GI50 (MOLT-4; Homo sapiens, MOLT-4, 5-dose): 11.7 µM
GI% (MOLT-4; MOLT-4, 10 μM): 89%
Growth Percent (MOLT-4; MOLT-4, 1.00E-5 Molar): 10.91%
TGI (MOLT-4; MOLT-4, 5-dose): <100 µM
TGI (MOLT-4; MOLT-4, 5-dose, listed as D - 835857): > 1.00E-4 Molar
CC50 (MOLT-4; MOLT-4, 5-dose): < 100 µM
GI50 (NCI-H460; Homo sapiens, NCI-H460, NCI-H460, 5-dose): 8.52 µM
LC50 (concentration giving 50% net cell kill) (NCI-H460; Homo sapiens, NCI-H460, 5-dose): 84 µM
GI% (NCI-H460; NCI-H460, 10 μM): 109%
Growth Percent (NCI-H460; NCI-H460, 1.00E-5 Molar): -9.44%
GI50 (NCI-H460; NCI-H460, 5-dose): 8.5 µM
TGI (NCI-H460; NCI-H460, 5-dose): 27.7 µM
TGI (NCI-H460; NCI-H460, 5-dose, listed as D - 835857): 2.77E-5 Molar
GI% (HCT-116; HCT-116, 10 μM): 93%
Growth Percent (HCT-116; HCT-116, 1.00E-5 Molar): 6.70%
TGI (HCT-116; HCT-116, 5-dose): 36.1 µM
TGI (HCT-116; HCT-116, 5-dose, listed as D - 835857): 3.61E-5 Molar
CC50 (HCT-116; HCT-116, 5-dose): < 100 µM
CC50 (HCT-116; Homo sapiens, HCT-116, HCT-116, 5-dose): > 100 µM
GI50 (HCT-116; Homo sapiens, HCT-116, 5-dose): 10.1 µM
CC50 (SK-MEL-28; Homo sapiens, SK-MEL-28, SK-MEL-28, 5-dose): > 100 µM
GI50 (SK-MEL-28; Homo sapiens, SK-MEL-28, 5-dose): 15.9 µM
GI% (SK-MEL-28; SK-MEL-28, 10 μM): 71%
Growth Percent (SK-MEL-28; SK-MEL-28, 1.00E-5 Molar): 28.75%
TGI (SK-MEL-28; SK-MEL-28, 5-dose): 97.4 µM
TGI (SK-MEL-28; SK-MEL-28, 5-dose, listed as D - 835857): 9.74E-5 Molar
CC50 (SK-MEL-28; SK-MEL-28, 5-dose): < 100 µM
GI% (BT-549; BT-549, 10 μM): 123%
Growth Percent (BT-549; BT-549, 1.00E-5 Molar): -23.53%
TGI (BT-549; BT-549, 5-dose): 33.8 µM
TGI (BT-549; BT-549, 5-dose, listed as D - 835857): 3.38E-5 Molar
GI50 (BT-549; Homo sapiens, BT-549, 5-dose): 14.6 µM
CC50 (BT-549; Homo sapiens, BT-549, 5-dose, read-out: LC50 (the source's name)): 78.1 µM
CC50 (SN12C; Homo sapiens, SN12C, 5-dose): > 100 µM
CC50 (SN12C; [2]): < 100 µM
GI50 (SN12C; [2]): 11 µM
GI% (SN12C; SN12C, 10 μM): 78%
Growth Percent (SN12C; SN12C, 1.00E-5 Molar): 22.24%
TGI (SN12C; SN 12 C, 5-dose): 60.4 µM
TGI (SN12C; SN12C, 5-dose): 6.04E-5 Molar
GI% (A498; A498, 10 μM): 78%
Growth Percent (A498; A498, 1.00E-5 Molar): 21.64%
TGI (A498; A498, 5-dose): 58.1 µM
TGI (A498; A498, 5-dose, listed as D - 835857): 5.81E-5 Molar
CC50 (A498; A498, 5-dose): < 100 µM
CC50 (A498; Homo sapiens, A498, A498, 5-dose): > 100 µM
GI50 (A498; Homo sapiens, A498, 5-dose): 19.9 µM
GI50 (MDA-MB-435; Homo sapiens, MDA-MB-435): 13.9 µM
CC50 (MDA-MB-435; Homo sapiens, MDA-MB-435, MDA-MB-435, 5-dose): > 100 µM
GI% (MDA-MB-435; MDA-MB-435, 10 μM): 77%
Growth Percent (MDA-MB-435; MDA-MB-435, 1.00E-5 Molar): 23.38%
TGI (MDA-MB-435; MDA-MB-435, 5-dose): 87.2 µM
TGI (MDA-MB-435; MDA-MB-435, 5-dose, listed as D - 835857): 8.72E-5 Molar
CC50 (MDA-MB-435; MDA-MB-435, 5-dose): < 100 µM
GI% (HOP-92; HOP-92, 10 μM): 120%
Growth Percent (HOP-92; HOP-92, 1.00E-5 Molar): -19.52%
GI50 (HOP-92; HOP-92, 5-dose): 2.9 µM
